According to article PMC8156206, “Novel N,N′-Disubstituted Selenoureas as Potential Antioxidant and Cytotoxic Agents” (Antioxidants, 2021):
Read-outs that look alike come from different tables or passages of the source.

Columns and labels:
[1] = tested on: 184B5 cells (breast non-malignant derived cell line); assay: MTT cell viability assay, 184B5; format: cell-based; conditions: Homo sapiens, 184B5; 48 h, MTT, mean ± SD; read-out: IC50 184B5 (breast, non-malignant)
Experimental: (§1) Cell lines were purchased from the American Type Culture Collection (ATCC). MCF-7, HTB-54, BEAS-2B and 184B5 cell lines were grown in RPMI 1640 medium (Gibco) supplemented with 10% fetal bovine serum (FBS; Gibco), 100 units/mL penicillin, and […] streptomycin (Gibco). HT-29 and HCT-116 cell lines was cultured in McCoy’s 5A (Gibco), 10% FBS, 100 units/mL penicillin, and 100 μg/mL streptomycin. Cells were maintained at 37 °C and 5% CO2. Culture medium was replaced every three days.
(§2) A cell viability assay of each compound was carried out using an MTT assay. Each selenourea was dissolved in dimethyl sulfoxide (DMSO) at a concentration of 0.01 M. Serial dilutions were prepared with non-supplemented culture medium. Cytotoxic activity of each selenourea was determined at two different concentrations (10 and 50 µM) in MCF-7, HTB-54, and HT-29 cells. In addition, selected compounds were tested at seven different concentrations (0.1, 1, 5, 10, 25, 50, 100 µM) on MCF-7, HT-29, HCT-116, HTB-54, 184B5, and BEAS-2B cells. The number of passages before defrosting the cells was 3, and they were kept under culture up to a maximum of 15.
(§3) Briefly, 1 × 10^4 cells/well were grown in 96-well plates for 24 h. Then, these cells were incubated with either DMSO (negative control) at 5 µM or a different concentration of each tested selenourea for 48 h. A volume of 20 µL of MTT was added 150 min before the termination point to measure cellular viability. After this time, culture medium was removed. The resultant formazan crystals were dissolved in 50 µL of DMSO, and absorbance was measured at 570 nm. Results are expressed as IC50, the half maximal inhibitory concentration. This value was calculated using GraphPad Prism 7 software by nonlinear curve fitting. Furthermore, the selectivity index (SI) was calculated as the ratio of the IC50 values determined for the non-malignant and the tumoral cells (IC50 (184B5)/IC50 (MCF-7) or (IC50 (BEAS-2B)/IC50 (HTB-54). Data were obtained from at least three independent experiments performed in triplicates.

HCT-116 cells (colon) = assay: MTT cell viability assay, HCT-116; format: cell-based; conditions: 48 h, MTT, mean ± SD, read-out: IC50 HCT-116 (colon)
Experimental: as §1, §2, §3

[2] = tested on: HT-29 cells (colon carcinoma); assay: MTT cell viability assay, HT-29; format: cell-based; conditions: Homo sapiens, 48 h, MTT; for IC50: HT-29, mean ± SD, read-out: IC50 HT-29 (colon); for viability at 10 µM: HT-29, 10 µM; for viability at 10 µM / viability at 50 µM: read-out: cell viability, percentage of live cells; for viability at 50 µM: HT-29, 50 µM
Experimental: as §1, §2, §3
(§4) The cytotoxic effects of synthesized compounds were evaluated against three human cancer cell lines: breast adenocarcinoma (MCF-7), lung adenocarcinoma (HTB-54), and colon carcinoma (HT-29), using a 3-[4,5-dimethylthiazol-2-yl]-2,5-diphenyltetrazolium bromide (MTT) assay. Firstly, the compounds were screened at two doses (50 and 10 µM) and after 48 h of treatment. The results are summarized in Figure 4 and are presented as percentages of growth inhibition related to control.

[3] = tested on: MCF-7 cells (breast adenocarcinoma); assay: MTT cell viability assay, MCF-7; format: cell-based, human; conditions: for IC50 / viability at 10 µM / viability at 50 µM: Homo sapiens, MCF7, 48 h, MTT; for IC50: mean ± SD, read-out: IC50 MCF-7 (breast); for viability at 10 µM: MCF-7, 10 µM; for viability at 10 µM / viability at 50 µM: read-out: cell viability, percentage of live cells; for viability at 50 µM: MCF-7, 50 µM; for SI (selectivity index) breast: IC50 (184B5)/IC50 (MCF-7)
Experimental: as §1, §2, §3, §4

[4] = tested on: HTB-54 cells (lung adenocarcinoma); assay: MTT cell viability assay, HTB-54; format: cell-based, human; conditions: for IC50 / viability at 10 µM / viability at 50 µM: Homo sapiens, 48 h, MTT; for IC50: HTB-54, mean ± SD, read-out: IC50 HTB-54 (lung); for viability at 10 µM: HTB-54, 10 µM; for viability at 10 µM / viability at 50 µM: read-out: cell viability, percentage of live cells; for viability at 50 µM: HTB-54, 50 µM; for SI (selectivity index) lung: IC50 (BEAS-2B)/IC50 (HTB-54)
Experimental: as §1, §2, §3, §4

[5] = tested on: BEAS-2B cells (lung non-malignant derived cell line); assay: MTT cell viability assay, BEAS-2B; format: cell-based; conditions: Homo sapiens, 48 h, mean ± SD
Experimental: as §1, §2, §3

[6] = tested on: MCF-7, HTB-54, HT-29 and HCT-116 cancer cell lines; assay: MTT assay, panel of four cancer cell lines; format: cell-based; conditions: MCF-7, HTB-54, HT-29, HCT-116, read-out: IC50 against the four cancer cell lines tested (all the cell lines)
Experimental: as §2, §3
Those derivatives that reduced the growth of the cell lines below 50% at 10 µM in at least one cell line were selected for being evaluated at five concentrations between […] and 100 µM. Ten compounds (1d, 1e, 2a, 2d, 3a, 6a, 6b, 6c, 6d, and 6e) passed this threshold and four of them (1e, 6c, 6d and 6e) in all three cancer cell lines. The data are expressed as IC50 (mean ± SD) in a panel of four cancer cell lines (MCF-7, HTB-54, HT-29, and HCT-116), and are shown in Table 1. Cisplatin was used as a standard drug. […] Additionally, reported IC50 values of a well-known antitumor selenocompound, i.e., sodium selenite (Na2SeO3), were used as reference for comparision with the selected selenoureas.

[7] = DPPH radical scavenging assay; conditions: 0.03 mg/mL, time-point 0 min
Experimental: (§5) From all the methods available for the prediction of the antioxidant properties, DPPH^● and ABTS^●+ assays were chosen according to their simplicity, accessibility, and effectiveness for a fast prediction of radical scavenging activities in vitro. The radical scavenging capacity of the novel selenoureas was determined by DPPH^● and ABTS^●^+ assays. Measurements were recorded on a BioTeck PowerWave XS spectrophotometer (BioTeck Instruments, Winooski (VT), USA) and the data were collected using KCJunior software (BioTeck Instruments, Winooski (VT), USA).
A DPPH assay was performed, as described by Svinyarov. Stock solutions of 1 mg/mL were initially prepared for each selenourea in methanol and this solution was used for the preparation of the different concentrations employed in the assay. Ascorbic acid (Asc) was used as positive control due to the literature reports that this derivative is a potent antioxidant and radical scavenger. A volume of 100 µL from a previously prepared stock solution (preserved in dark and daily prepared) of DPPH (100 µM) in methanol were added to 100 µL of the methanolic selenoureas solutions prepared previously, and the antioxidant activity these compounds was assessed by its ability to decolorize DPPH● radical (purple color in methanol) to DPPHH (colorless). Thus, radical scavenging activity was estimated by the decrease in the absorbance at 517 nm. Determinations were recorded at different time-points. All the measurements were carried out in triplicate. Results are expressed as the percentage of the radicals scavenged, calculated using the following formula:(1) % DPPH radical scavenging=Acontrol − Asample/Acontrol × 100 where Acontrol refers to the absorbance of the negative control and Asample refers to the absorbance of the tested compounds. Results are expressed as percentage of DPPH radical scavenging ± SD.
In order to determine the radical scavenging of these newly synthesized selenourea derivatives, the DPPH assay was firstly employed. Measurements were performed at four different concentrations ranging from 0.0003 to 0.03 mg/mL, and collected at time-points between 0 min and 120 min (Figures S81–S100). Results are presented as the percentage of inhibition for DPPH radical scavenging activity.

[8] = tested on: MCF-7 cells (breast adenocarcinoma); conditions: cited from earlier work
[9] = tested on: HTB-54 cells (lung adenocarcinoma); parameters: method as in PMID 22397496; conditions: reference drug, literature value; cited from earlier work
[10] = tested on: HT-29 cells (colon carcinoma); parameters: method as in PMID 32801055; conditions: reference drug, literature value; cited from earlier work
[11] = ABTS radical scavenging assay; conditions: 0.003 mg/mL, 60 min
Experimental: as §5
As well as DPPH, ABTS radical scavenging assay is a colorimetric method. ABTS (2,2′-azino-bis(3-ethylbenzothiazoline-6-sulfonic acid) was dissolved in deionized water at 1 mg/mL and oxidized to ABTS^●+ with potassium persulfate (2.45 mM final concentration). This oxidation process is not instantaneous, and the reaction mixture was kept in the dark overnight at room temperature. After ABTS^●+ radical was generated, the ABTS^●+ solution was diluted with 50% ethanol until an absorbance of 0.70 ± 0.02 at 734 nm for measurements was achieved. Stock solution of 1 mg/mL in absolute ethanol was prepared for each selenourea, and different dilutions were prepared to reach the final concentration, when 20 µL of this solution were added to 180 µL of the diluted ABTS^●+. The absorbance at 734 nm was recorded using 50% ethanol as blank. Trolox and Asc were used as positive controls. All determinations were carried out in triplicate. Same time intervals as in the DPPH assay were also measured. The ability to scavenge ABTS^●+ was calculated using the following formula:(2) % ABTS radical scavenging=Acontrol − Asample/Acontrol × 100 where Acontrol refers to the absorbance of the negative control and Asample refers to the absorbance of the tested compounds. The results are expressed as percentage of ABTS radical scavenging ± SD.
In order to confirm the antioxidant activity of the selenoureas, we performed an additional ABTS (2,2′-azino-bis(3-ethylbenzothiazoline-6-sulfonic acid) radical scavenging assay. Following the results obtained in the DPPH assay, this experiment was performed at 0.03 and 0.003 mg/mL. Measurements were recorded after 0′, 6′ and 60′ of incubation with ABTS. For comparison purposes, Trolox and ascorbic acid were used as references. The remarkable results are summarized in Figure 3.

Compound | IC50 [1] [µM] | IC50 (HCT-116 cells (colon); Homo sapiens, HCT-116) [µM] | IC50 [2] [µM] | viability at 10 µM [2] [%] | viability at 50 µM [2] [%] | melting point [°C] | IC50 [3] [µM] | viability at 10 µM [3] [%] | viability at 50 µM [3] [%] | SI (selectivity index) breast [3] | IC50 [4] [µM] | viability at 10 µM [4] [%] | viability at 50 µM [4] [%] | SI (selectivity index) lung [4] | IC50 [5] [µM] | IC50 [6] [µM] | DPPH radical scavenging kinetics [7] | ABTS radical scavenging activity compared with Trolox [11] | also measured
N#Cc1ccc(NC(=[Se])NCc2ccco2)cc1 [Compound 1e] | 8.09 ± 1.21 | 9.14 ± 1.14 | 5.89 ± 1.32 | 36.2 | 28.5 | 128 | 9.96 ± 1.45 | 48.8 | 23.4 | 0.81 | 9.79 ± 0.07 | 35.7 | 9.3 | 0.61 | 6.01 ± 0.94 | < 10 | reaching the maximum activity at time-point 0′ |  | 
O=[Se](O)O [sodium selenite] |  |  |  |  |  |  |  |  |  |  |  |  |  |  |  |  |  |  | IC50 ([8]; after 72 h of treatment, read-out: IC50 in MCF-7 cells): 17 µM
N.N.[Cl][Pt][Cl] [Cisplatin] |  |  |  |  |  |  |  |  |  |  |  |  |  |  |  |  |  |  | IC50 [9]: 13.7 ± 0.83 µM; IC50 [10]: 14.2 ± 0.73 µM; IC50 (HCT-116 cells (colon)): 2.18 ± 1.58 µM; IC50 ([8]; reference drug, literature value, read-out: IC50 MCF-7 (breast)): 15.2 ± 1.04 µM
Clc1ccc(NC(=[Se])NC23CC4CC(CC(C4)C2)C3)cc1 [Compound 6d, N´-adamantyl-N-(4-chlorophenyl)selenourea] | 16 ± 2.74 | 6.95 ± 0.65 | 8.04 ± 2.17 | 45.9 | 23.7 | 177 | 7.19 ± 1.12 | 36.6 | 17.2 | 2.22 | 6.56 ± 0.99 | 22.9 | 4.4 | 1.16 | 7.59 ± 0.53 | < 10 |  | significant lower radical scavenging activity than Trolox | 
Cc1ccc(NC(=[Se])NC23CC4CC(CC(C4)C2)C3)cc1 [Compound 6b] | 12.2 ± 2.42 | 6.29 ± 0.76 | 5.67 ± 4.67 | 51.4 | 46.8 | 169 | 5.52 ± 1.61 | 40 | 9.2 | 2.21 | 9.01 ± 2.6 | 44.2 | 26.1 | 0.83 | 7.56 ± 0.19 | < 10 |  | significant lower radical scavenging activity than Trolox | 
N#Cc1ccc(NC(=[Se])NC23CC4CC(CC(C4)C2)C3)cc1 [Compound 6e, N´-Adamanty-N-(4-cyanophenyl)selenourea] | 7.69 ± 0.31 | 5.43 ± 0.86 | 4.18 ± 0.46 | 18.9 | 3.6 |  | 5.47 ± 3.91 | 44.4 | 5.7 | 1.41 | 6.09 ± 0.75 | 34 | 0.3 | 0.39 | 2.36 ± 0.39 | < 10 | reaching the maximum activity at time-point 0′ |  | 
